Entries after “also recorded” stand apart in the source; their conditions may differ. Where a name gives a salt, the structure may show the parent alone. Read-outs that look alike come from different tables or passages of the source.
Key:
[1] = Stability of drugs and suspensions after gamma irradiation (chromatographic analysis)
Protocol: Aseptic formulation of thixotropic pharmaceutical compositions was conducted in accordance with the teachings of the present invention as follows. […] Following the sizing operation, each individual drug was divided into lots, which were then placed in an atmosphere of either argon or air. Each lot was then sterilized using 1.0 or 2.5 Mrad of gamma radiation applied to the lots of each drug under argon or air. Concomitantly, colloidal silicon dioxide was sterilized using dry heat while perfluorodecalin was sterile filtered. The three components were then combined aseptically and blended using a high shear dispenser. The thixotropic pharmaceutical compositions were then analyzed by chromatographic techniques to determine the effect of gamma radiation on the stability of the ten drugs sterilized either in air or in the argon environment.

[2] = cited from earlier work; for Density / Kin. viscosity / Specific heat / Surface tension: 25° C.; for Boiling point: ambient pressure
[3] = test system: rabbit eyes
Protocol: As a control, an aqueous solution containing the same amount of drug was prepared. The final concentration of the brimonidine in both formulations was 0.1% w/v. The nonaqueous thixotropic compositions of the present invention were administered in a low dose volume of 8 μl, while the prior art aqueous control was administered in a volume of 50 μl. The drugs were administered to one eye of the rabbit with both eyes subsequently monitored for changes in intraocular pressure.

[4] = test system: glaucomatous monkeys; test: Heart rate after topical levo-bunolol in conscious, glaucomatous monkeys; assay type: in vivo, monkey
Protocol: (§1) To illustrate the high localized drug bioavailability and correspondingly low systemic side effects of the present invention, a pharmacology study was conducted on conscious, glaucomatous monkeys. Formulations of 0.25% w/v levo-bunolol, used to reduce intraocular pressure in glaucoma patients, were administered as an aqueous solution and as a thixotropic pharmaceutical composition made in accordance with the teachings of the present invention. The monkeys were monitored for reductions in intraocular pressure, indicating the desired localized drug action, and for changes in heart rate, indicating undesirable drug migration away from the target site and into the systemic circulation. The thixotropic compositions were administered in low dose volume 8 μl drops while the aqueous formulations were administered in prior art drop volumes of approximately 35 μl. FIG. 13A is the mean reduction in heart rate for the monkeys treated with the aqueous solution of the drug while FIG. 13B is the mean reduction in heart rate for the monkeys treated with the nonaqueous formulation.

[5] = test system: glaucomatous monkeys; test: Intraocular pressure after levo-bunolol in conscious, glaucomatous monkeys; assay type: in vivo, monkey; details: 0.25% w/v, 8 μl thixotropic versus approximately 35 μl aqueous
Protocol: as §1

[6] = test system: CHO cells; test: Chinese hamster ovary (CHO) clonal cytotoxicity assay; assay type: cell-based; details: three-hour exposure
Protocol: To confirm the lack of toxicity associated with the thixotropic compositions of the present invention, a Chinese hamster ovary (CHO) clonal assay was performed to measure the cytotoxic effects of CSD and perfluorodecalin on cell viability. As is well-known in the art, the CHO clonal assay is extremely sensitive and is often used to test pharmaceutical composition toxicity. Different cell populations were exposed to 0.5% w/v CSD in perfluorodecalin, and from 0.01% to 0.1% w/v AGN 191053 dispersed in a suspension of 0.5% w/v CSD in perfluorodecalin. Straight perfluorodecalin was used as a negative control with a three-hour exposure period for each formulation tested.

[7] = Flow curve analysis fitted to the Cross model (viscosity, yield stress); assay type: physicochemical
Protocol: In order to determine the stress threshold at which the CSD network collapsed, stress sweeps were run on the five dispersions formulated in Example 1. The stress sweeps were conducted using a Carri-med and CNMR CS 100 rheometer with an optical encoder upgrade. The measuring geometry for all the CSD/perfluorodecalin dispersions was a 4 cm SS Flat Plate with solvent trap. The gap, selected after conducting probe studies using the 2.5% w/v CSD/perfluorodecalin dispersion, was set at 250 μm for the stress sweeps. The measuring geometry for perfluorodecalin was a recessed concentric cylinder and cup set at a 4 mm gap. These stress studies were run at 15° C. to minimize the evaporation of perfluorodecalin. For longer experiments (greater than 10 minutes), a cover was placed over the Flat Plate to prevent perfluorodecalin vaporization. FIG. 1 plots delta versus shear stress for each of the dispersions. Delta is the phase of the actual curve relative to the applied sinusoidal stress. […] This stress threshold is CSD concentration dependent and indicates the presence of an elastic three-dimensional network at low or resting stresses (i.e. low delta values). […]
To further characterize the rheology of the dispersions formulated in Example 1, complete flow curves, fit to the Cross model, were generated over a broad range of shear rates. […] Yield stresses were calculated from flow curve data.

[8] = test system: eyes of New Zealand albino rabbits; test: Ocular toxicity of CSD in perfluorodecalin, gross and slit lamp examination; assay type: in vivo, rabbit
Protocol: More specifically, CSD dispersions of 2% w/v, 1% w/v and 0.5% w/v were prepared as in Example 1 and topically administered to the rabbits six times, at one hour intervals. Dose volumes of 8 μl were used for each dispersion along with a perfluorodecalin control. Following the six topical installations, each of the eyes was subjected to gross and slit lamp examination.

[9] = test system: rabbit eyes; test: Pupil diameter change after pilocarpine; assay type: in vivo
Protocol: Three different concentrations of pilocarpine were formulated as prior art aqueous solutions and as exemplary nonaqueous thixotropic pharmaceutical compositions according to the teachings of the present invention. Specifically, aqueous solutions and nonaqueous suspensions of 0, 0.1%, 0.5% and 2% pilocarpine were formulated under sterile conditions. The nonaqueous drug suspensions were made using 0.5% CSD uniformly dispersed in perfluorodecalin. Both sets of formulations were administered to rabbit eyes in drop volumes of 8 μl using positive displacement pipettes. Changes in pupil diameter were monitored with three rabbits being used for each concentration of each formulation. In particular, FIG. 12A illustrates the effects of the three different concentrations of […] administered using the nonaqueous vehicle while FIG. 12B illustrates equivalent data for the prior art solubilized aqueous pilocarpine.

[10] = 1.0 or 2.5 Mrad, under argon or air

Brc1c(NC2=NCCN2)ccc2nccnc12 [AGN 190342]
activity lost after gamma radiation [1]: No more than 5%

FC1(F)C(F)(F)C(F)(F)C2(F)C(F)(C1(F)F)C(F)(F)C(F)(F)C1(F)C(F)(F)C(F)(F)C(F)(F)C(F)(F)C12F (centres unmarked) [PPP, perfluoroperhydrophenanthrene]
Density [2]: 2.016 gms/mL
Kin. viscosity [2]: 8.0 cSt
Specific heat [2]: 0.27 g-cal/gm
Surface tension [2]: 21.6 dynes/cm
Boiling point [2]: 215 °C

O [Water]
Density [2]: 1.000 gms/mL
Kin. viscosity [2]: 1.00 cSt
Specific heat [2]: 1.00 g-cal/gm
Surface tension [2]: 72.0 dynes/cm

Brc1c(NC2=NCCN2)ccc2nccnc12 [brimonidine]
peak mean intraocular pressure reduction, treated eye ([3]; 0.1% w/v, 8 μl thixotropic versus 50 μl aqueous): comparable to the much larger aqueous based prior art dosage
intraocular pressure response, untreated eye ([3]; aqueous solution 0.1% w/v, 50 μl): undesirable pressure reduction in untreated eyes
intraocular pressure response, untreated eye ([3]; thixotropic composition 0.1% w/v, 8 μl, versus aqueous control): significantly less intraocular pressure response in the untreated eye; also recorded: significant lower decrease in intraocular pressure in the untreated eyes

CNCC(O)c1ccc(OC(=O)C(C)(C)C)c(OC(=O)C(C)(C)C)c1 (centres unmarked) [dipivalylepinephrine HCl]
activity lost after gamma radiation [1]: No more than 5%

CC(C)(C)NC[C@H](O)COc1cccc2c1CCCC2=O [levo-bunolol HCl]
activity lost after gamma radiation [1]: No more than 5%

CC(C)(C)NC[C@H](O)COc1cccc2c1CCCC2=O [levo-bunolol]
decrease in heart rate, thixotropic relative to aqueous solution ([4]; 0.25% w/v, 8 μl thixotropic versus approximately 35 μl aqueous): 65%
heart rate response ([4]; prior art aqueous delivery vehicle): undesirable decrease in heart rate
reduction in intraocular pressure, thixotropic versus aqueous [5]: almost identical

CC1COc2c(N3CCN(C)CC3)c(F)cc3c(=O)c(C(=O)O)cn1c23 (centres unmarked) [ofloxacin]
activity lost after gamma radiation [1]: No more than 5%

FC1(F)C(F)(F)C(F)(F)C2(F)C(F)(F)C(F)(F)C(F)(F)C(F)(F)C2(F)C1(F)F (centres unmarked) [perfluorodecalin, Perfluoro(decahydronaphthalene)]
Density [2]: 1.929 gms/mL
Kin. viscosity [2]: 2.9 cSt
Specific heat [2]: 0.22 g-cal/gm
Surface tension [2]: 19.3 dynes/cm
Boiling point [2]: 142 °C
specific gravity ([2]; used to convert drop weight to volume): 1.93 g/mL
chemical toxicity to CHO cells [6]: Neither the perfluorodecalin nor the CSD/perfluorodecalin formulations exhibited any chemical toxicity
viscosity of pure perfluorodecalin without CSD [7]: 9.2 centipoise
Newtonian viscosity ([7]; 0% CSD): 0.092 poise
toxicity (cornea) ([8]; 6 topical doses of 8 μl at one hour intervals): no discomfort, irritation, or toxicity
eye discomfort ([8]; rabbit, in vivo): no discomfort, irritation, or toxicity
irritation (conjunctiva) ([8]; rabbit, in vivo): no discomfort, irritation, or toxicity

CC[C@@H]1C(=O)OC[C@@H]1Cc1cncn1C [pilocarpine]
recovery period of pupil diameter ([9]; nonaqueous formulation versus aqueous): prolonged recovery period
reduction in pupil size ([9]; nonaqueous thixotropic versus aqueous, equivalent drug concentrations, 8 μl): greater pharmaceutical effect, i.e. a reduction in pupil size

CC(=O)OCC(=O)[C@@]1(O)CC[C@H]2[C@@H]3CCC4=CC(=O)C=C[C@]4(C)[C@H]3[C@@H](O)C[C@@]21C [prednisolone acetate]
activity lost after gamma radiation [1, 10]: No more than 5%

Cc1nnc(SCC2=C(C(=O)O)N3C(=O)[C@@H](NC(=O)Cn4cnnn4)[C@H]3SC2)s1 [sodium cephazolin]
activity lost after gamma radiation [1]: No more than 5%

O=C(O)c1cc(=O)c2c(OCC(O)COc3cccc4oc(C(=O)O)cc(=O)c34)cccc2o1 [sodium cromoglycate]
activity lost after gamma radiation [1]: No more than 5%

CC(C(=O)O)c1ccc(-c2ccccc2)c(F)c1 (centres unmarked) [sodium flurbiprofen]
activity lost after gamma radiation [1]: No more than 5%

CC(C)(C)NC[C@H](O)COc1nsnc1N1CCOCC1 [timolol]
activity lost after gamma radiation [1, 10]: No more than 5%

Source: patent publication US5480914A, “Nonaqueous thixotropic drug delivery suspensions and methods of their use” (priority 1994, dated 1996)
